Reference: ChEMBL document CHEMBL1201862, “PubChem BioAssay data set” (2004)
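These data come from cells grown in 96-well plates and exposed to compound for 48 hours at five concentrations. GI50: concentration for 50% inhibition of growth.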 Calls of active or inactive are those of the source. No stated cut-off is given here; in the data, active = GI50 up to about 1.1 µM and inactive = higher.

Key:
Assay in all cases: growth of human tumour cells (NCI), 48 h
HOP-62 = system: HOP-62
MOLT-4 = system: MOLT-4
IGROV-1 = system: IGROV-1
T47D = system: T47D
Malme-3M = system: Malme-3M
CCRF-CEM = system: CCRF-CEM
SF-268 = system: SF-268
MDA-N = system: MDA-N
MDA-MB-231 = system: MDA-MB-231
NCI/ADR-RES = system: NCI/ADR-RES
NCI-H23 = system: NCI-H23
NCI-H226 = system: NCI-H226
A549 = system: A549
MDA-MB-435 = system: MDA-MB-435
TK-10 = system: TK-10
SNB-75 = system: SNB-75
786-0 = system: 786-0
OVCAR-3 = system: OVCAR-3
NCI-H460 = system: NCI-H460
RXF 393 = system: RXF 393

Compound	GI50 (HOP-62)	GI50 (MOLT-4)	GI50 (IGROV-1)	GI50 (T47D)	GI50 (Malme-3M)	GI50 (CCRF-CEM)	GI50 (SF-268)	GI50 (MDA-N)	GI50 (MDA-MB-231)	GI50 (NCI/ADR-RES)	GI50 (NCI-H23)	GI50 (NCI-H226)	GI50 (A549)	GI50 (MDA-MB-435)	GI50 (TK-10)	GI50 (SNB-75)	GI50 (786-0)	GI50 (OVCAR-3)	GI50 (NCI-H460)	GI50 (RXF 393)
Fc1ccc(C(OCCN2CC3CC2CN3CCCc2ccccc2)c2ccc(F)cc2)cc1 (stereo unspecified)	11.4 µM (inactive)	3.61 µM (inactive)	10.1 µM (inactive)	2.07 µM (inactive)	2.93 µM (inactive)	4.52 µM (inactive)	10.2 µM (inactive)	6.27 µM (inactive)	4.61 µM (inactive)	5.64 µM (inactive)	11.4 µM (inactive)	7.23 µM (inactive)	12 µM (inactive)	5.3 µM (inactive)	11.2 µM (inactive)	0.955 µM (active)	5.53 µM (inactive)	9.98 µM (inactive)	4.48 µM (inactive)	
CCn1c(CCCc2nc3c(=O)n(C)c(=O)n(C)c3[nH]2)nc2c1c(=O)n(C)c(=O)n2C	> 100 µM (inactive)	> 100 µM (inactive)	> 100 µM (inactive)	> 100 µM (inactive)	> 100 µM (inactive)	> 100 µM (inactive)	> 100 µM (inactive)	> 100 µM (inactive)	> 100 µM (inactive)	> 100 µM (inactive)	> 100 µM (inactive)	14.8 µM (inactive)	> 100 µM (inactive)	> 100 µM (inactive)	> 100 µM (inactive)		> 100 µM (inactive)	> 100 µM (inactive)	> 100 µM (inactive)	> 100 µM (inactive)
CC1(C)OC2[C@@H](CO[C@@]3([C@@H](O)CCO)OC(C)(C)O[C@@H]23)O1 (stereo partly specified)	> 100 µM (inactive)	> 100 µM (inactive)	> 100 µM (inactive)	> 100 µM (inactive)		> 100 µM (inactive)	> 100 µM (inactive)	> 100 µM (inactive)	> 100 µM (inactive)	> 100 µM (inactive)	> 100 µM (inactive)	> 100 µM (inactive)		> 100 µM (inactive)	> 100 µM (inactive)	> 100 µM (inactive)	> 100 µM (inactive)	> 100 µM (inactive)	> 100 µM (inactive)	> 100 µM (inactive)
O=C(O)C1C2CCC(O2)C1C(=O)Nc1cccc2cccnc12 (stereo unspecified)	> 100 µM (inactive)		> 100 µM (inactive)	> 100 µM (inactive)	> 100 µM (inactive)			> 100 µM (inactive)	> 100 µM (inactive)	> 100 µM (inactive)	> 100 µM (inactive)		> 100 µM (inactive)	> 100 µM (inactive)	> 100 µM (inactive)	> 100 µM (inactive)	> 100 µM (inactive)	> 100 µM (inactive)	55.5 µM (inactive)	> 100 µM (inactive)
COc1ccccc1OC(=O)/C=C/c1ccccc1	52.1 µM (inactive)	17.4 µM (inactive)	> 100 µM (inactive)	> 100 µM (inactive)	> 100 µM (inactive)		52.1 µM (inactive)	> 100 µM (inactive)	> 100 µM (inactive)	> 100 µM (inactive)	> 100 µM (inactive)	> 100 µM (inactive)	> 100 µM (inactive)	> 100 µM (inactive)	84.1 µM (inactive)	> 100 µM (inactive)	> 100 µM (inactive)	> 100 µM (inactive)	33 µM (inactive)	> 100 µM (inactive)
CC(C)(C)OC(=O)NCCNCCNc1ccccc1	> 100 µM (inactive)	> 100 µM (inactive)	> 100 µM (inactive)	85.5 µM (inactive)	> 100 µM (inactive)	> 100 µM (inactive)		97.5 µM (inactive)	> 100 µM (inactive)	> 100 µM (inactive)	> 100 µM (inactive)	> 100 µM (inactive)	> 100 µM (inactive)	> 100 µM (inactive)	> 100 µM (inactive)	58.2 µM (inactive)	> 100 µM (inactive)	> 100 µM (inactive)	> 100 µM (inactive)	> 100 µM (inactive)
CC1=NN(c2cccc(Cl)c2)C2(SCC(=O)N2c2nc3ccccc3s2)/C1=C\c1ccc(N(C)C)cc1 (stereo unspecified)	19.4 µM (inactive)	48.5 µM (inactive)	54.7 µM (inactive)	34.8 µM (inactive)		66.1 µM (inactive)	38.7 µM (inactive)	> 100 µM (inactive)	40.7 µM (inactive)	> 100 µM (inactive)	31.8 µM (inactive)	76 µM (inactive)		> 100 µM (inactive)	33 µM (inactive)		43.8 µM (inactive)	48.5 µM (inactive)	20.9 µM (inactive)	21.8 µM (inactive)
COc1ccc(Nc2nnc(-c3nsc4ccccc34)s2)cc1	8.26 µM (inactive)	46.5 µM (inactive)	> 100 µM (inactive)	20.1 µM (inactive)		34.7 µM (inactive)	33.5 µM (inactive)	76 µM (inactive)	6.5 µM (inactive)	9.71 µM (inactive)	> 100 µM (inactive)	9.46 µM (inactive)	27.4 µM (inactive)	> 100 µM (inactive)	> 49.3 µM (inactive)	2.6 µM (inactive)	3.41 µM (inactive)	63 µM (inactive)	15 µM (inactive)	26.2 µM (inactive)
